Holding throughout (test): NCI tumour cell line growth inhibition, 48 h
For test [1], the system named is EKVX.
In test [2] the test system is HCC 2998.
For test [3], the system named is SN12C.
The test system of test [4] is OVCAR-4.
In test [5] the test system is SK-MEL-5.
Test [6] has as its system HOP-62.
The test system of test [7] is UACC-62.
For test [8], the system named is KM12.
The test system of test [9] is SF-539.
Test [10] deals with HT-29.
The test system of test [11] is SK-MEL-2.
Test [12] has as its system COLO 205.
Test [13] deals with LOX IMVI.
Test [14] deals with SF-295.
Test [15] deals with RXF 393.
Test [16] concerns SNB-75.
The subject of test [17] is MOLT-4.
Test [18] relates to SK-MEL-28.

SMILES strings stand for the structures.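 Values below derive from 48-hour exposures of cells grown in 96-well plates, with endpoints linearly interpolated between the two concentrations bracketing the appropriate inhibition level. At the GI50, growth is halved.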 The source made the active and inactive calls. No stated cut-off is given here; in the data, active = GI50 up to about 1.1 µM and inactive = higher.

On to `CN(C)CCN(C)CCC(=O)/C=C/c1ccccc1`, for which the GI50 was 32.1 µM (inactive) in test [1]; > 45.5 µM (inactive) in test [2]; 19 µM (inactive) in test [3]; 38.2 µM (inactive) in test [4]; > 44.5 µM (inactive) in [5]; > 100 µM (inactive) in test [6]. The GI50 in test [7] is 25.4 µM (inactive); in test [8], 20.5 µM (inactive); in [9] it was 19.1 µM (inactive); in [10] it was 20.8 µM (inactive); in test [11] it was 39.2 µM (inactive); in test [12], 18.7 µM (inactive). Moreover, the GI50 in test [13] is 12.6 µM (inactive); in test [14], > 40.4 µM (inactive); in [15], 21.3 µM (inactive); in test [16], > 41.5 µM (inactive); in test [17], 7.26 µM (inactive); in [18] it was 20.1 µM (inactive).
On to `CCOC(=O)C1COc2cc(-c3cc(=O)c4ccccc4o3)ccc2O1` (stereo not given), for which the GI50 was 95.1 µM (inactive) in test [1]; > 100 µM (inactive) in test [2]; 29.5 µM (inactive) in [3]; 42.9 µM (inactive) in test [4]; > 100 µM (inactive) in [5]; 36.8 µM (inactive) in test [7]. In addition, the GI50 was > 100 µM (inactive) in [8]; 30.5 µM (inactive) in test [9]; 22.8 µM (inactive) in [10]; > 100 µM (inactive) in [11]; > 100 µM (inactive) in test [12]; 52.7 µM (inactive) in test [13]. Besides, the GI50 in test [14] is > 100 µM (inactive); in test [15], 47.8 µM (inactive); in [16], 47.9 µM (inactive); in test [17], > 100 µM (inactive); in test [18], > 100 µM (inactive).
Turning to `CC(=O)OC(C)(C)[C@@H]1CC[C@]2(C)/C=C/[C@H](C)C[C@@H](O)C3=C(C)C[C@@H](O3)C12` (stereo not given in full), the GI50 in test [1], in test [2], in [3], in [4], in test [5] and in test [6] was > 100 µM (inactive) each time. Besides, the GI50 in test [7], in test [8], in test [9], in test [10], in [11] and in [12] was > 100 µM (inactive) each time. For the same compound, the GI50 was > 100 µM (inactive) in test [13]; > 100 µM (inactive) in [14]; 94.6 µM (inactive) in test [15]; > 100 µM (inactive) in test [16]; > 100 µM (inactive) in test [17]; > 100 µM (inactive) in test [18].
Take `CCCCCC(=O)OC[n+]1ccc2c(C)c3[nH]c4ccccc4c3c(C)c2c1`: the GI50 in [1] is 0.628 µM (active); in [2], 0.787 µM (active); in [3], 0.489 µM (active); in test [4], 1.1 µM (active); in test [5] it was 1.51 µM (inactive); in [6] it was 1.24 µM (inactive). Besides, the GI50 in test [7] is 1.56 µM (inactive); in test [9] it was 0.817 µM (active); in test [10], 0.482 µM (active); in test [11], 3.61 µM (inactive); in [13], 0.514 µM (active); in test [14], 0.946 µM (active). Also, the GI50 is 1.23 µM (inactive) in test [15], 1.49 µM (inactive) in [16], 0.327 µM (active) in [17] and 1.43 µM (inactive) in [18].
As to `OC12c3ccccc3C3CCC4(OCCO4)C3C1c1ccccc12` (stereo not given), the GI50 in [1], in test [2], in [3], in test [4], in [5] and in test [6] was > 100 µM (inactive) throughout. Also, the GI50 in test [7] is > 100 µM (inactive); in test [8] it was > 100 µM (inactive); in test [9], > 100 µM (inactive); in [10], 94.2 µM (inactive); in test [11], > 100 µM (inactive); in [12], > 100 µM (inactive). For the same compound, the GI50 in test [13] is > 100 µM (inactive); in test [14] it was > 100 µM (inactive); in test [15] it was 39.9 µM (inactive); in test [16] it was 39.6 µM (inactive); in test [17] it was 48.6 µM (inactive); in test [18], > 100 µM (inactive).
Turning to `O=C(O)C1=C(C(=O)O)Oc2ccccc2O1`, the GI50 in [1], in [2], in [3], in test [4], in [6] and in test [7] was > 100 µM (inactive) each time. The GI50 in test [8], in test [9], in test [10], in test [11], in [12] and in test [13] was > 100 µM (inactive) throughout. The GI50 in test [14], in test [15], in [16], in [17] and in test [18] was > 100 µM (inactive) throughout.
`CN(C)C(=O)Oc1c(-c2ccccc2)c(=O)n2c3ccccc3n3c(=O)n(C)c(=O)c1c23`: the GI50 in [1], in test [2], in [3], in test [4], in test [5] and in test [6] was > 100 µM (inactive) in each case. Further, the GI50 is > 100 µM (inactive) in test [7]; > 10 µM (inactive) in [8]; > 100 µM (inactive) in [9]; > 100 µM (inactive) in test [10]; > 100 µM (inactive) in test [11]; > 100 µM (inactive) in test [12]. Further, the GI50 is > 100 µM (inactive) in test [13]; > 100 µM (inactive) in test [14]; > 100 µM (inactive) in test [15]; 72.3 µM (inactive) in test [16]; > 100 µM (inactive) in [17]; > 100 µM (inactive) in test [18].
Take `CN(C)c1ccc(/C=C/c2ccc(/C=C/c3ccc(N(C)C)cc3)cc2)cc1`: the GI50 was > 100 µM (inactive) in test [1]; > 100 µM (inactive) in test [2]; > 100 µM (inactive) in [3]; > 100 µM (inactive) in test [4]; 35.1 µM (inactive) in test [5]; 87.3 µM (inactive) in test [7]. Moreover, the GI50 in test [8], in test [9], in [10], in test [11], in [12] and in test [13] was > 100 µM (inactive) each time. In addition, the GI50 in [14] is 89.1 µM (inactive); in test [15], > 100 µM (inactive); in [16], > 100 µM (inactive); in test [17], > 100 µM (inactive); in [18] it was > 100 µM (inactive).
For `O=C1CCCCCCCCCCC(=O)N2CCOCCOCCN1Cc1cccc(n1)C2`, the GI50 was > 100 µM (inactive) in [1]; > 100 µM (inactive) in test [2]; > 100 µM (inactive) in test [3]; > 100 µM (inactive) in test [4]; 61.5 µM (inactive) in test [5]; > 100 µM (inactive) in [6]. Besides, the GI50 in test [7] was > 100 µM (inactive); in test [8] it was > 100 µM (inactive); in test [9] it was 83.2 µM (inactive); in [10], > 100 µM (inactive); in [11] it was > 100 µM (inactive); in test [12], > 100 µM (inactive). The GI50 in [13] is > 100 µM (inactive); in test [14], 65.5 µM (inactive); in test [15], 28.4 µM (inactive); in test [16] it was 56 µM (inactive); in [17] it was 39.6 µM (inactive); in [18], > 100 µM (inactive).
On to `C=CCC(N(C)C(=O)[C@H](Cc1ccccc1)NC(=O)OCc1ccccc1)P(=O)(Oc1ccccc1)Oc1ccccc1` (stereo not given in full), for which the GI50 in test [1], in test [2], in test [3], in test [6], in test [7] and in test [8] was > 100 µM (inactive) in each case. In addition, the GI50 in [9] was > 100 µM (inactive); in test [10] it was > 100 µM (inactive); in test [11], > 100 µM (inactive); in [12] it was 8.43 µM (inactive); in test [13], > 100 µM (inactive); in [14], > 100 µM (inactive). The GI50 in test [15] was > 100 µM (inactive); in test [16], 80.5 µM (inactive); in test [17], 2.77 µM (inactive); in test [18], > 100 µM (inactive).
Consider `Cc1nc(-n2nc(-c3ccccc3)cc2-c2ccccc2)sc1C(=O)/C=C/c1cccc([N+](=O)[O-])c1`, for which the GI50 is 34.7 µM (inactive) in [1]; 15.5 µM (inactive) in test [2]; 19.8 µM (inactive) in [3]; 12.7 µM (inactive) in test [5]; 15.9 µM (inactive) in test [6]; 13.8 µM (inactive) in test [7]. Also, the GI50 was 2.62 µM (inactive) in test [8]; 10.9 µM (inactive) in [9]; 12.7 µM (inactive) in test [10]; 17.7 µM (inactive) in test [11]; 17 µM (inactive) in test [12]; 11.2 µM (inactive) in test [13]. The GI50 in test [14] is 20.1 µM (inactive); in test [15], 14.1 µM (inactive); in [16], 5.73 µM (inactive); in [17] it was 6.04 µM (inactive); in [18], 17.1 µM (inactive).

(Values after ChEMBL document CHEMBL1201862, “PubChem BioAssay data set” (2004).)
